Results: US20110178053A1, “AZACARBOLINE DERIVATIVES, PREPARATION METHOD THEREOF AND THERAPEUTIC USE OF SAME” (SANOFI-AVENTIS, priority 2008, published 2011)
Read-outs that look alike come from different tables or passages of the source.

Legend:
Format in all cases: biochemical
[1] = target: T1, Pim-2 (Homo sapiens, UniProt Q9P1W9); test: TR-FRET assay, Pim-2 kinase (phosphorylation of Bad Ser112); conditions: read-out: IC50 Pim2
T1 construct: His6-labelled recombinant full-length human Pim-1, Pim-2 or Pim-3 protein; His6; made in house
Description: (§1) In order to determine the inhibition of activation of Pim kinases, the compounds of the invention are tested in accordance with a routinely used in vitro TR-FRET assay (Time-Resolved Fluorescence Resonance Energy Transfer). […] For the assay, the following reagents are used:
(§2) Pim kinase—His6-labelled recombinant full-length human Pim-1, Pim-2 or Pim-3 protein (prepared according to J. Mol. Biol. (2005) 348, 183-193); Bad—His6-labelled recombinant full-length human Bad protein (prepared according to J. Mol. Biol. (2005) 348, 183-193); α-His6-APC—murine monoclonal antibody conjugated to allophycocyanin SureLight™ directed against the His6 label (Perkin-Elmer, No. AD0059H, Waltham, Mass., United States); • β-P˜Bad-Eu—murine monoclonal antibody (Cell Signaling Technology #9296B, Danvers, Mass., United States) directed against phosphoBad (Ser112) (7E11) custom-labelled by Perkin-Elmer with the reagent LANCE™ Eu-W1024.
(§3) The assay is based on Perkin-Elmer's LANCE™ technology: the Eu-labelled antibody binds to phospho-Ser112 and generates a TR-FRET signal by interaction with the APC-labelled antibody directed against His6, bound to the His6 label of Bad. The TR-FRET signal is detected using a SpectraMax M5 plate reader (Molecular Devices) with the following settings: λex=340 nm, λem1=615 nm, λem2=665 nm. The ratio of the fluorescence signal at 665 nm to the fluorescence signal at 615 nm is used as the signal reading for the IC50 (calculation is based on the 4-parameter logistic model). The assay is performed in a 384-well format; the liquid manipulations are performed using a Beckman 3000 liquid manipulations station. The test compounds are tested at 10 concentration points in duplicate; the highest compound concentration is typically equal to 30 μM. The ATP concentration is equal to 40 μM, which is equivalent to the apparent KM value.

[2] = target: T2, Pim-1 (Homo sapiens, UniProt P11309); test: TR-FRET assay, Pim-1 kinase (phosphorylation of Bad Ser112); conditions: read-out: IC50 Pim1
T2 construct: His6-labelled recombinant full-length human Pim-1, Pim-2 or Pim-3 protein; His6; made in house
Description: as §1, §2, §3

[3] = target: T3, Pim-3 (Homo sapiens, UniProt Q86V86); test: TR-FRET assay, Pim-3 kinase (phosphorylation of Bad Ser112); conditions: read-out: IC50 Pim3
T3 construct: His6-labelled recombinant full-length human Pim-1, Pim-2 or Pim-3 protein; His6; made in house
Description: as §1, §2, §3

[4] = comparative compounds (Compound No., not claimed)

T2 sequence (P11309 whole entry): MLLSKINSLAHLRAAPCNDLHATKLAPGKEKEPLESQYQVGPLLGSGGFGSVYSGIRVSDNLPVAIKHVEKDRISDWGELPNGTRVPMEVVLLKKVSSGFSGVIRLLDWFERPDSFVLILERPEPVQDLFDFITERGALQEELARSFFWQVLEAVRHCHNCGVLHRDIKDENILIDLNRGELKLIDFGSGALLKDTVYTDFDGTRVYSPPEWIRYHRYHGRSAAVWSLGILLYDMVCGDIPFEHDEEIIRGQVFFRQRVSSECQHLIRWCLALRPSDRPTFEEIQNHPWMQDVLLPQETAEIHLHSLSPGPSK
T1 sequence (Q9P1W9 whole entry): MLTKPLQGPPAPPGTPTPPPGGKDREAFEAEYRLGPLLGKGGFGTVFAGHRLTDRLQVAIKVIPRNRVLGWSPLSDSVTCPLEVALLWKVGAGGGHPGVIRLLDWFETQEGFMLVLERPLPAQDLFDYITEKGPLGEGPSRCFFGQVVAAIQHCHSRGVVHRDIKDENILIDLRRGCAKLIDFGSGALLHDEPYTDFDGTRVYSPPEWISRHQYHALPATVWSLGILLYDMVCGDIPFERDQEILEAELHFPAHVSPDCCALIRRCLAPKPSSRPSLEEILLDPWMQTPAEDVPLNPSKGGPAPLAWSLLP

| Compound | IC50 ([1]; TR-FRET, ATP 40 μM) | IC50 ([2]; TR-FRET, ATP 40 μM) | IC50 ([3]; TR-FRET, ATP 40 μM) | IC50 [1, 4] | IC50 [2, 4] | IC50 [3, 4] |
| --- | --- | --- | --- | --- | --- | --- |
| c1cncc(-c2cc3c(cn2)[nH]c2ncc(-c4ccc(N5CCNCC5)nc4)cc23)c1 [Example 158, 3-[6-(piperazin-1-yl)pyrid-3-yl]-6-(pyrid-3-yl)-9H-pyrrolo[2,3-b:5,4-c′]dipyridine] | 0.1 to 1 µM | 0.001 to 0.1 µM | 0.001 to 0.1 µM |  |  |  |
| COc1ccncc1-c1cc2c(cn1)[nH]c1ncc(F)cc12 [Example 160, 3-fluoro-6-(4-methoxypyrid-3-yl)-9H-pyrrolo[2,3-b:5,4-c′]dipyridine] | > 5 µM | 0.1 to 1 µM | 1 to 5 µM |  |  |  |
| NCCCOc1ccc(-c2cnc3[nH]c4cnc(-c5cccnc5)cc4c3c2)cc1 [Example 155, 3-{4-[6-(pyrid-3-yl)-9H-pyrrolo[2,3-b:5,4-c′]dipyrid-3-yl]-phenoxy}propan-1-amine] | 0.1 to 1 µM | 0.001 to 0.1 µM | 0.001 to 0.1 µM |  |  |  |
| Cc1cc(N2CCN(C(=O)OC(C)(C)C)CC2)ncc1-c1cnc2[nH]c3cnc(-c4cccnc4)cc3c2c1 [Example 156, 2-methyl-2-propyl 4-{4-methyl-5-[6-(pyrid-3-yl)-9H-pyrrolo[2,3-b:5,4-c′]dipyrid-3-yl]-pyrid-2-yl}piperazine-1-carboxylate] | > 5 µM | 0.001 to 0.1 µM | 0.1 to 1 µM |  |  |  |
| Nc1ccc(-c2c(F)cnc3[nH]c4cnc(-c5cccnc5)cc4c23)cn1 [Example 74, 5-[3-fluoro-6-(pyrid-3-yl)-9H-pyrrolo[2,3-b,-c′]dipyrid-4-yl]pyrid-2-amine] | 1 to 5 µM | 0.1 to 1 µM | 0.1 to 1 µM |  |  |  |
| Fc1cnc2[nH]c3cnc(-c4cccnc4)cc3c2c1Cl [Example 37, 4-chloro-3-fluoro-6-(pyrid-3-yl)-9H-pyrrolo[2,3-b:5,4-c′]dipyridine] | > 5 µM | 0.1 to 1 µM | 1 to 5 µM |  |  |  |
| Fc1cnc2[nH]c3cnc(-c4cccnc4)cc3c2c1I [Example 20, 3-fluoro-4-iodo-6-(pyrid-3-yl)-9H-pyrrolo[2,3-b:5,4-c′]dipyridine] |  | 0.001 to 0.1 µM |  |  |  |  |
| CCN(CC)c1cnc2[nH]c3cnc(-c4cccnc4)cc3c2c1 [Example 11, N,N-diethyl-6-(pyrid-3-yl)-9H-pyrrolo[2,3-b:5,4-c′]dipyrid-3-amine] |  | 1 to 5 µM |  |  |  |  |
| Clc1cnc2[nH]c3cnc(-c4cccnc4)cc3c2c1 [Example 13, 3-chloro-6-(pyrid-3-yl)-9H-pyrrolo[2,3-b:5,4-c′]dipyridine] | 1 to 5 µM | 0.1 to 1 µM | 0.1 to 1 µM |  |  |  |
| Fc1cnc2[nH]c3cnc(-c4cccnc4)cc3c2c1/C=C/c1ccccc1 [Example 24, 3-fluoro-4-[(E)-2-phenylethenyl]-6-(pyrid-3-yl)-9H-pyrrolo[2,3-b:5,4-c′]dipyridine] | > 5 µM | 0.1 to 1 µM | 1 to 5 µM |  |  |  |
| Fc1cnc2[nH]c3cnc(-c4cccnc4)cc3c2c1-c1ccc2cc[nH]c2c1 [Example 55] | 1 to 5 µM | 0.001 to 0.1 µM | 0.1 to 1 µM |  |  |  |
| Ic1cnc2[nH]c3cnc(-c4cccnc4)cc3c2c1 [Example 114, 3-iodo-6-(pyrid-3-yl)-9H-pyrrolo[2,3-b:5,4-c′]dipyridine] | 1 to 5 µM | 0.1 to 1 µM | 0.1 to 1 µM |  |  |  |
| c1cncc(-c2cnc3[nH]c4ncccc4c3c2)c1 [Compound 56] |  |  |  | > 5 µM | > 5 µM | > 5 µM |
| Fc1ccc(-c2cc3c(cn2)[nH]c2ncccc23)cn1 [Example 41, 6-(6-fluoropyrid-3-yl)-9H-pyrrolo[2,3-b:5,4-c′]dipyridine] | > 5 µM | 1 to 5 µM | > 5 µM |  |  |  |
| Fc1cnc2[nH]c3cnc(-c4cccnc4)cc3c2c1N1CCN(CCCN2CCOCC2)CC1 [Example 87, 3-fluoro-4-{4-[3-(morpholin-4-yl)propyl]piperazin-1-yl}-6-(pyrid-3-yl)-9H-pyrrolo-[2,3-b:5,4-c′]-dipyridine] | 0.1 to 1 µM | 0.001 to 0.1 µM | 0.001 to 0.1 µM |  |  |  |
| CS(=O)(=O)c1cccc(-c2c(F)cnc3[nH]c4cnc(-c5cccnc5)cc4c23)c1 [Example 72, 3-fluoro-4-[3-(methylsulfonyl)phenyl]-6-(pyrid-3-yl)-9H-pyrrolo[2,3-b:5,4-c′]dipyridine] | > 5 µM | 0.1 to 1 µM | 1 to 5 µM |  |  |  |
| Cc1csc(-c2c(F)cnc3[nH]c4cnc(-c5cccnc5)cc4c23)c1 [Example 54, 3-fluoro-4-(4-methylthiophen-2-yl)-6-(pyrid-3-yl)-9H-pyrrolo[2,3-b:5,4-c′]dipyridine] | > 5 µM | 0.001 to 0.1 µM | 0.1 to 1 µM |  |  |  |
| CN1CCN(c2cnc3[nH]c4cnc(-c5cccnc5)cc4c3c2)CC1 [Example 106, 3-(4-methylpiperazin-1-yl)-6-(pyrid-3-yl)-9H-pyrrolo[2,3-b:5,4-c′]dipyridine] | > 5 µM | 0.001 to 0.1 µM | 0.001 to 0.1 µM |  |  |  |
| Fc1cnc2[nH]c3cnc(-c4cccnc4)cc3c2c1-c1cccc(N2CCOCC2)c1 [Example 31, 3-fluoro-4-[3-(morpholin-4-yl)phenyl]-6-(pyrid-3-yl)-9H-pyrrolo [2,3-b:5,4-c′]dipyridine] | > 5 µM | 0.1 to 1 µM | 1 to 5 µM |  |  |  |
| Cc1c(F)cnc2[nH]c3cnc(-c4cccnc4)cc3c12 [Example 38, 4-methyl-3-fluoro-6-(pyrid-3-yl)-9H-pyrrolo[2,3-b:5,4-c′]dipyridine] | > 5 µM | 0.1 to 1 µM | 0.1 to 1 µM |  |  |  |
| Fc1cncc(-c2cc3c(cn2)[nH]c2ncccc23)c1 [Example 42, 6-(5-fluoropyrid-3-yl)-9H-pyrrolo[2,3-b:5,4-c′]dipyridine] |  | 1 to 5 µM |  |  |  |  |
| COC(=O)c1cnc2[nH]c3cnc(-c4cccnc4)cc3c2c1 [Example 3, methyl 6-(pyrid-3-yl)-9H-pyrrolo[2,3-b:5,4-c′]dipyridine-3-carboxylate] |  | 0.1 to 1 µM |  |  |  |  |
| CC(C)(C)OC(=O)N1CCN(c2ccc(-c3cnc4[nH]c5cnc(-c6cccnc6)cc5c4c3)cc2)CC1 [Example 129, 2-methyl-2-propyl 4-{4-[6-(pyrid-3-yl)-9H-pyrrolo[2,3-b:5,4-c′]dipyrid-3-yl]phenyl}-piperazine-1-carboxylate] |  | 0.1 to 1 µM | 0.1 to 1 µM |  |  |  |
| O=C(O)c1cnc2[nH]c3cnc(-c4cccnc4)cc3c2c1 [Example 19, 6-(pyrid-3-yl)-9H-pyrrolo[2,3-b:5,4-c′]dipyridine-3-carboxylic acid] |  | 0.1 to 1 µM |  |  |  |  |
| CN(CCCC(=O)N1CCCC1)c1cnc2[nH]c3cnc(-c4cccnc4)cc3c2c1 [Example 12, 4-{methyl[6-(pyrid-3-yl)-9H-pyrrolo-[2,3-b:5,4-c′]dipy-rid-3-yl]amino}-1-(pyrrolidin-1-yl)-butan-1-one] |  | 0.1 to 1 µM |  |  |  |  |
| CC(C)(C)OC(=O)N1CCN(c2cccc(-c3cnc4[nH]c5cnc(-c6cccnc6)cc5c4c3)c2)CC1 [Example 131, 2-methyl-2-propyl 4-{3-[6-(pyrid-3-yl)-9H-pyrrolo[2,3-b:5,4-c′]dipyrid-3-yl]phenyl}piperazine-1-carboxylate] |  | 0.1 to 1 µM | 0.1 to 1 µM |  |  |  |
| CC(C)(C)OC(=O)N1CCN(c2cc(-c3cnc4[nH]c5cnc(-c6cccnc6)cc5c4c3)ccn2)CC1 [Example 143, 2-methyl-2-propyl 4-{4-[6-(pyrid-3-yl)-9H-pyrrolo[2,3-b:5,4-c′]dipyrid-3-yl]pyrid-2-yl}piperazine-1-carboxylate] |  | 0.1 to 1 µM | 0.1 to 1 µM |  |  |  |
| CCc1cc(N(CC)CC)ncc1-c1cnc2[nH]c3cnc(-c4cccnc4)cc3c2c1 [Example 133, N,N-4-triethyl-5-[6-(pyrid-3-yl)-9H-pyrrolo[2,3-b:5,4-c′]dipyrid-3-yl]pyrid-2-amine] |  | 0.001 to 0.1 µM | 0.1 to 1 µM |  |  |  |
